From patent US20030017599A1, “Assay for the detection of selectable marker expression in plants” (priority 1999, published 2003)

Legend:
Type in all cases: in vivo, corn (Zea mays)
[1] = tested on: Nontransgenic 3-week-old corn seedlings; assay: Titration of selective agents with cotton rolls tied to the whorl
Protocol: Nontransgenic 3-week-old corn seedlings were assayed in order to determine the quantity of selective agent necessary in order to obtain a response. […] Cotton rolls were saturated with solutions consisting of 0.03% SILWET L-77 and various concentrations of each of these three antibiotics individually and tied to the whorl of plants to be tested.
The concentrations of genenticin tested were 25 mg/mL, 50 mg/mL, 75 mg/mL, and 100 mg/mL.

[2] = tested on: Nontransgenic corn plants (H99); assay: Kanamycin, paromomycin and the combination with and without surfactant; conditions: 20 μL, 5 plants, seven days
Protocol: Nontransgenic corn plants (H99) were tested at 24 days old using 5 plants for each treatment. Plants were treated with and without surfactant at two different concentrations of paromomycin, kanamycin, and the combination of paromomycin and kanamycin._On the day of application, an antibiotic solutions consisting of 750 mg/L or 1000 mg/L paromomycin and 0.06% (v/v) SILWET L-77 was prepared, as was a control solution consisting of 750 mg/L or 1000 mg/L of paromomycin in water. […] Antibiotic solution (20 μL) was applied to the whorl of each corn plant, from which any standing water has been removed beforehand.

[3] = tested on: corn plants containing NPTII protein; assay: Paromomycin as selective agent to identify corn plants containing NPTII protein (predicted); conditions: 10 μL of 1000 mg/L paromomycin and 0.06% (v/v) SILWET L-77; five days
From the text: Samples of the plants may be taken and analyzed by ELISA for the presence or absence of NPTII protein prior to the start of the field test. […] Negative controls (i.e., nontransgenic plants) may be divided into two equal groups. […] The treated plants may then be scored for the presence or absence of necrosis five days after application of the antibiotic/[…]-77 solution or control solution. […] The field assay scores may then be correlated with the […] results.

[4] = 750 mg/L (each antibiotic), with 0.06% SILWET L-77
[5] = 750 mg/L (each antibiotic), without SILWET L-77
[6] = 1000 mg/L (each antibiotic), with 0.06% SILWET L-77
[7] = 1000 mg/L (each antibiotic), without SILWET L-77

Row | Compound | bleaching and necrosis in treated plant leaves ([1]; 300 mg/L, 500 mg/L and 750 mg/L in 0.03% SILWET L-77, two days) | bleaching and necrosis in treated plant leaves ([1]; 1000 mg/L in 0.03% SILWET L-77, two days) | number of plants with mild symptoms [2, 4] | number of plants with no symptoms [2, 4] | number of plants with severe necrosis [2, 4] | number of plants with mild symptoms [2, 5] | number of plants with no symptoms [2, 5] | number of plants with severe necrosis [2, 5] | number of plants with mild symptoms [2, 6] | number of plants with no symptoms [2, 6] | number of plants with severe necrosis [2, 6] | number of plants with mild symptoms [2, 7] | number of plants with no symptoms [2, 7] | number of plants with severe necrosis [2, 7] | necrosis relative to similarly treated leaves of corn plants that do not contain NPTII protein [3]
1 | NC[C@@H]1O[C@H](O[C@H]2[C@@H](O)[C@H](O[C@@H]3[C@@H](O)[C@H](N)C[C@H](N)[C@H]3O[C@H]3O[C@H](CO)[C@@H](O)[C@H](O)[C@H]3N)O[C@@H]2CO)[C@H](N)[C@@H](O)[C@@H]1O [paromomycin] | Slight to moderate necrosis and some bleaching | extreme necrosis and some bleaching | 0 | 2 | 3 | 0 | 5 | 0 | 0 | 1 | 4 | 0 | 5 | 0 | reduced or no necrosis
2 | NC[C@H]1O[C@H](O[C@H]2[C@H](O)[C@@H](O[C@H]3O[C@H](CO)[C@@H](O)[C@H](N)[C@H]3O)[C@H](N)C[C@@H]2N)[C@H](O)[C@@H](O)[C@@H]1O [kanamycin] | – | – | 0 | 0 | 5 | 1 | 4 | 0 | 2 | 0 | 3 | 1 | 4 | 0 | –
